{"source": "PubChem BioAssay (NCI)", "experiment_in_all_cases": "growth of human tumour cells (NCI), 48 h", "key": {"[1]": {"test_system": "786-0 renal"}, "[2]": {"test_system": "A498 renal"}, "[3]": {"test_system": "A549 NSCLC"}, "[4]": {"test_system": "ACHN renal"}, "[5]": {"test_system": "CAKI-1 renal"}, "[6]": {"test_system": "CCRF-CEM leukemia"}, "[7]": {"test_system": "COLO 205 colon"}, "[8]": {"test_system": "DLD-1 colon"}, "[9]": {"test_system": "DMS 114 small cell lung"}, "[10]": {"test_system": "DMS 273 small cell lung"}, "[11]": {"test_system": "EKVX NSCLC"}, "[12]": {"test_system": "HCC-2998 colon"}, "[13]": {"test_system": "HCT-15 colon"}, "[14]": {"test_system": "HL-60(TB) leukemia"}, "[15]": {"test_system": "HOP-18 NSCLC"}, "[16]": {"test_system": "HOP-62 NSCLC"}, "[17]": {"test_system": "HOP-92 NSCLC"}, "[18]": {"test_system": "HT29 colon"}, "[19]": {"test_system": "IGROV1 ovarian"}, "[20]": {"test_system": "K-562 leukemia"}, "[21]": {"test_system": "KM12 colon"}, "[22]": {"test_system": "LOX IMVI melanoma"}, "[23]": {"test_system": "LXFL 529 NSCLC"}, "[24]": {"test_system": "M14 melanoma"}, "[25]": {"test_system": "M19-MEL melanoma"}, "[26]": {"test_system": "MALME-3M melanoma"}, "[27]": {"test_system": "MOLT-4 leukemia"}, "[28]": {"test_system": "NCI-H226 lung"}, "[29]": {"test_system": "NCI-H23 lung"}, "[30]": {"test_system": "NCI-H460 lung"}, "[31]": {"test_system": "OVCAR-3 ovarian"}, "[32]": {"test_system": "OVCAR-4 ovarian"}, "[33]": {"test_system": "OVCAR-5 ovarian"}, "[34]": {"test_system": "OVCAR-8 ovarian"}, "[35]": {"test_system": "RPMI-8226 leukemia"}, "[36]": {"test_system": "RXF-631 renal"}, "[37]": {"test_system": "SF-268 CNS"}, "[38]": {"test_system": "SF-295 CNS"}, "[39]": {"test_system": "SF-539 CNS"}, "[40]": {"test_system": "SK-MEL-2 melanoma"}, "[41]": {"test_system": "SK-MEL-28 melanoma"}, "[42]": {"test_system": "SK-MEL-5 melanoma"}, "[43]": {"test_system": "SK-OV-3 ovarian"}, "[44]": {"test_system": "SN12C renal"}, "[45]": {"test_system": "SNB-19 CNS"}, "[46]": {"test_system": "SNB-75 CNS"}, "[47]": {"test_system": "SNB-78 CNS"}, "[48]": {"test_system": "SW-620 colon"}, "[49]": {"test_system": "TK-10 renal"}, "[50]": {"test_system": "U251 CNS"}, "[51]": {"test_system": "UACC-62 melanoma"}, "[52]": {"test_system": "UO-31 renal"}, "[53]": {"test_system": "XF 498 CNS"}}, "note": "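Where inhibition never reached the appropriate level, the endpoint shown equals the highest concentration tested. Otherwise, values were interpolated linearly from a five-concentration, 48-hour dose response in 96-well plates. GI50 is the concentration that inhibits growth by half. TGI: total growth inhibition.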"}
{"compound": "N#CC(C(=O)C(=O)Nc1c(Cl)cccc1Cl)c1ccccc1", "note": "(stereo unspecified)", "values": [{"measurement": "GI50", "setting": "[1]", "result": "> 100", "unit": "µM"}, {"measurement": "TGI", "setting": "[1]", "result": "> 100", "unit": "µM"}, {"measurement": "GI50", "setting": "[2]", "result": "> 100", "unit": "µM"}, {"measurement": "TGI", "setting": "[2]", "result": "> 100", "unit": "µM"}, {"measurement": "GI50", "setting": "[3]", "result": "> 100", "unit": "µM"}, {"measurement": "TGI", "setting": "[3]", "result": "> 100", "unit": "µM"}, {"measurement": "GI50", "setting": "[4]", "result": "> 100", "unit": "µM"}, {"measurement": "TGI", "setting": "[4]", "result": "> 100", "unit": "µM"}, {"measurement": "GI50", "setting": "[5]", "result": "> 100", "unit": "µM"}, {"measurement": "TGI", "setting": "[5]", "result": "> 100", "unit": "µM"}, {"measurement": "GI50", "setting": "[6]", "result": "> 100", "unit": "µM"}, {"measurement": "TGI", "setting": "[6]", "result": "> 100", "unit": "µM"}, {"measurement": "GI50", "setting": "[7]", "result": "> 100", "unit": "µM"}, {"measurement": "TGI", "setting": "[7]", "result": "> 100", "unit": "µM"}, {"measurement": "GI50", "setting": "[8]", "result": "> 100", "unit": "µM"}, {"measurement": "TGI", "setting": "[8]", "result": "> 100", "unit": "µM"}, {"measurement": "GI50", "setting": "[9]", "result": "> 100", "unit": "µM"}, {"measurement": "TGI", "setting": "[9]", "result": "> 100", "unit": "µM"}, {"measurement": "GI50", "setting": "[10]", "result": "> 100", "unit": "µM"}, {"measurement": "TGI", "setting": "[10]", "result": "> 100", "unit": "µM"}, {"measurement": "GI50", "setting": "[11]", "result": "> 100", "unit": "µM"}, {"measurement": "TGI", "setting": "[11]", "result": "> 100", "unit": "µM"}, {"measurement": "GI50", "setting": "[12]", "result": "> 100", "unit": "µM"}, {"measurement": "TGI", "setting": "[12]", "result": "> 100", "unit": "µM"}, {"measurement": "GI50", "setting": "[13]", "result": "> 100", "unit": "µM"}, {"measurement": "TGI", "setting": "[13]", "result": "> 100", "unit": "µM"}, {"measurement": "GI50", "setting": "[14]", "result": "> 100", "unit": "µM"}, {"measurement": "TGI", "setting": "[14]", "result": "> 100", "unit": "µM"}, {"measurement": "GI50", "setting": "[15]", "result": "> 100", "unit": "µM"}, {"measurement": "TGI", "setting": "[15]", "result": "> 100", "unit": "µM"}, {"measurement": "GI50", "setting": "[16]", "result": "> 100", "unit": "µM"}, {"measurement": "TGI", "setting": "[16]", "result": "> 100", "unit": "µM"}, {"measurement": "GI50", "setting": "[17]", "result": "> 100", "unit": "µM"}, {"measurement": "TGI", "setting": "[17]", "result": "> 100", "unit": "µM"}, {"measurement": "GI50", "setting": "[18]", "result": "> 100", "unit": "µM"}, {"measurement": "TGI", "setting": "[18]", "result": "> 100", "unit": "µM"}, {"measurement": "GI50", "setting": "[19]", "result": "> 100", "unit": "µM"}, {"measurement": "TGI", "setting": "[19]", "result": "> 100", "unit": "µM"}, {"measurement": "GI50", "setting": "[20]", "result": "> 100", "unit": "µM"}, {"measurement": "TGI", "setting": "[20]", "result": "> 100", "unit": "µM"}, {"measurement": "GI50", "setting": "[21]", "result": "> 100", "unit": "µM"}, {"measurement": "TGI", "setting": "[21]", "result": "> 100", "unit": "µM"}, {"measurement": "GI50", "setting": "[22]", "result": "> 100", "unit": "µM"}, {"measurement": "GI50", "setting": "[23]", "result": "> 100", "unit": "µM"}, {"measurement": "TGI", "setting": "[23]", "result": "> 100", "unit": "µM"}, {"measurement": "GI50", "setting": "[24]", "result": "> 100", "unit": "µM"}, {"measurement": "TGI", "setting": "[24]", "result": "> 100", "unit": "µM"}, {"measurement": "GI50", "setting": "[25]", "result": "> 100", "unit": "µM"}, {"measurement": "TGI", "setting": "[25]", "result": "> 100", "unit": "µM"}, {"measurement": "GI50", "setting": "[26]", "result": "> 100", "unit": "µM"}, {"measurement": "TGI", "setting": "[26]", "result": "> 100", "unit": "µM"}, {"measurement": "GI50", "setting": "[27]", "result": "> 100", "unit": "µM"}, {"measurement": "TGI", "setting": "[27]", "result": "> 100", "unit": "µM"}, {"measurement": "GI50", "setting": "[28]", "result": "> 100", "unit": "µM"}, {"measurement": "TGI", "setting": "[28]", "result": "> 100", "unit": "µM"}, {"measurement": "GI50", "setting": "[29]", "result": "> 100", "unit": "µM"}, {"measurement": "TGI", "setting": "[29]", "result": "> 100", "unit": "µM"}, {"measurement": "GI50", "setting": "[30]", "result": "> 100", "unit": "µM"}, {"measurement": "TGI", "setting": "[30]", "result": "> 100", "unit": "µM"}, {"measurement": "GI50", "setting": "[31]", "result": "> 100", "unit": "µM"}, {"measurement": "TGI", "setting": "[31]", "result": "> 100", "unit": "µM"}, {"measurement": "GI50", "setting": "[32]", "result": "> 100", "unit": "µM"}, {"measurement": "TGI", "setting": "[32]", "result": "> 100", "unit": "µM"}, {"measurement": "GI50", "setting": "[33]", "result": "> 100", "unit": "µM"}, {"measurement": "TGI", "setting": "[34]", "result": "> 100", "unit": "µM"}, {"measurement": "GI50", "setting": "[35]", "result": "> 100", "unit": "µM"}, {"measurement": "TGI", "setting": "[35]", "result": "> 100", "unit": "µM"}, {"measurement": "GI50", "setting": "[36]", "result": "> 100", "unit": "µM"}, {"measurement": "TGI", "setting": "[36]", "result": "> 100", "unit": "µM"}, {"measurement": "GI50", "setting": "[37]", "result": "> 100", "unit": "µM"}, {"measurement": "TGI", "setting": "[37]", "result": "> 100", "unit": "µM"}, {"measurement": "GI50", "setting": "[38]", "result": "> 100", "unit": "µM"}, {"measurement": "GI50", "setting": "[39]", "result": "> 100", "unit": "µM"}, {"measurement": "TGI", "setting": "[39]", "result": "> 100", "unit": "µM"}, {"measurement": "GI50", "setting": "[40]", "result": "> 100", "unit": "µM"}, {"measurement": "TGI", "setting": "[40]", "result": "> 100", "unit": "µM"}, {"measurement": "GI50", "setting": "[41]", "result": "> 100", "unit": "µM"}, {"measurement": "TGI", "setting": "[41]", "result": "> 100", "unit": "µM"}, {"measurement": "GI50", "setting": "[42]", "result": "> 100", "unit": "µM"}, {"measurement": "TGI", "setting": "[42]", "result": "> 100", "unit": "µM"}, {"measurement": "GI50", "setting": "[43]", "result": "> 100", "unit": "µM"}, {"measurement": "TGI", "setting": "[43]", "result": "> 100", "unit": "µM"}, {"measurement": "GI50", "setting": "[44]", "result": "> 100", "unit": "µM"}, {"measurement": "TGI", "setting": "[44]", "result": "> 100", "unit": "µM"}, {"measurement": "GI50", "setting": "[45]", "result": "> 100", "unit": "µM"}, {"measurement": "TGI", "setting": "[45]", "result": "> 100", "unit": "µM"}, {"measurement": "GI50", "setting": "[46]", "result": "> 100", "unit": "µM"}, {"measurement": "TGI", "setting": "[46]", "result": "> 100", "unit": "µM"}, {"measurement": "GI50", "setting": "[47]", "result": "> 100", "unit": "µM"}, {"measurement": "TGI", "setting": "[47]", "result": "> 100", "unit": "µM"}, {"measurement": "GI50", "setting": "[48]", "result": "> 100", "unit": "µM"}, {"measurement": "TGI", "setting": "[48]", "result": "> 100", "unit": "µM"}, {"measurement": "GI50", "setting": "[49]", "result": "> 100", "unit": "µM"}, {"measurement": "TGI", "setting": "[49]", "result": "> 100", "unit": "µM"}, {"measurement": "GI50", "setting": "[50]", "result": "> 100", "unit": "µM"}, {"measurement": "TGI", "setting": "[50]", "result": "> 100", "unit": "µM"}, {"measurement": "GI50", "setting": "[51]", "result": "> 100", "unit": "µM"}, {"measurement": "TGI", "setting": "[51]", "result": "> 100", "unit": "µM"}, {"measurement": "GI50", "setting": "[52]", "result": "> 100", "unit": "µM"}, {"measurement": "TGI", "setting": "[52]", "result": "> 100", "unit": "µM"}, {"measurement": "TGI", "setting": "[53]", "result": "> 100", "unit": "µM"}]}
